Patent EP2545917B1, “NOVEL EP4 AGONIST” (Kaken Pharmaceutical Co., Ltd., priority 2010, dated 2011)

What was measured:
[1] = test system: Human Platelet Aggregation; assay: Inhibitory effect on ADP-induced platelet aggregation in platelet-rich plasma; assay type: cell-based; settings: ADP 10 µmol/L, geometric mean of three volunteers
Protocol: The inhibitory effect of compounds F and J, and carboxylate forms thereof on platelet aggregation was evaluated. The carboxylate forms were prepared by separating and purifying the compound synthesized in Example 15 with a column. Blood was drawn from 3 healthy volunteers using sodium citrate as an anticoagulant, and platelet-rich plasma was prepared. The platelet-rich plasma was treated with physiological saline or test compounds and, 2 min later, platelet aggregation was induced with adenosine diphosphate (ADP, final concentration 10 µmol/L) and recorded with a platelet aggregation measurement apparatus (nephelometry).

[2] = In vitro metabolic stability: β-oxidation reaction in rat liver mitochondria fraction; assay type: in vitro ADME; settings: parent compound after NADPH-independent β-oxidation reaction, 37°C, 30 min, tested as isomer mixtures, average ± SD of 3 experiments
Protocol: A mixture of the compound F and compound J of the present invention described in Table 1 (F:J = 52:41, synthesized in Example 14), and a mixture of compounds wherein the tetrazole groups at C-1 of compound F and compound J are respectively substituted by carboxylic acid (referred to as carboxylate form, F:J = 54:34, synthesized in Example 15) were tested.
First, a mitochondria fraction was prepared from the rat liver according to the following Reference A. Then, in reference to the method of […] et al. described in the following References B and C, an NADPH-independent β oxidation reaction was studied. The reaction was carried out at 37°C for 30 min, and stopped with a methanol solution containing a suitable internal standard substance. Each compound was quantified by the internal standard method using a high performance liquid chromatography mass spectrometry apparatus (LC-MS/MS). The compound residual ratio after metabolic reaction of compounds F, J and each carboxylate form thereof in rat mitochondria fraction is shown in the following Table 2 in average ± standard deviation of 3 experiments. Table 2 Residual Ratio of Parent Compound after β-Oxidation Reaction

Human EP4 = target: T1, Human EP4 (Homo sapiens, UniProt P35408); assay: EP4 agonist activity, CRE-LUC reporter gene in transfected COS-7 cells; assay type: cell-based
T1 construct: expressed in transfected cells; host or cells: COS-7
Protocol: In brief, human EP4 gene and CRE-LUC reporter gene were transfected into COS-7 cells. The cells were treated with a test compound one day later, and incubated for 3 hr. The cells were washed, a luminescence substrate was added, and the luminescence intensity was measured for the agonist activity.

Human EP1 = target: T2, Human EP1 (Homo sapiens, UniProt P34995); assay: Receptor affinity, tritium-labeled PGE2 binding to membranes of transfected COS-7 cells
T2 construct: expressed in transfected cells; host or cells: COS-7
T2 sequence (P34995 1-402): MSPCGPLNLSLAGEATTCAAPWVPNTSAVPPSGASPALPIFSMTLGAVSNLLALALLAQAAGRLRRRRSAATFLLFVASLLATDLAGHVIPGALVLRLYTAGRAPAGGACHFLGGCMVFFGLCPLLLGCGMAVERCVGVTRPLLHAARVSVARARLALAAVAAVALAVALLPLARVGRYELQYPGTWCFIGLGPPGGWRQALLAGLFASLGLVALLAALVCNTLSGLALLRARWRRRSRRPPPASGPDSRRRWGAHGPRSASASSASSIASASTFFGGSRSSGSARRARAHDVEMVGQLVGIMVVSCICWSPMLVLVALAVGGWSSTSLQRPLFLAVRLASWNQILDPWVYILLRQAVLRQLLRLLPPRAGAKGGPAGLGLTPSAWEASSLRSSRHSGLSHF
Protocol: PG receptor affinity of compound F and compound J of the present invention was evaluated. Compound F used was one synthesized in Example 9, and compound J was prepared by separating and purifying the compound synthesized in Example 14 with a column (the same preparations were used in the following Examples). COS-7 cells were transfected with the genes of mouse EP4, human EP1-4 or human IP to overexpress the receptor and then the cell membranes were collected. As a labeled ligand, tritium-labeled PGE2 was used for EPs; tritium-labeled iloprost, for IP. The dissociation constant Kd value was obtained and inhibition constant Ki value of each test compound was determined in a conventional method. As a reference control, PGE2 was used for EPs; beraprost sodium (BPS), for IP.

[3] = test system: ethanol-induced gastric mucosal injury; assay: Ethanol-induced gastric mucosal injury model in rats; assay type: in vivo, SD rats
Protocol: Male SD rats (7 weeks old, Charles River) were purchased through Oriental BioService Inc., acclimated for 1 week and used for the study. The rats were grouped based on the body weight, placed in a clean cage set with a wire mesh floor one day before the study, fasted for 19 hr (without water for last 3 hr), and orally administered with ethanol (special grade, Nacalai Tesque, Lot No. V8A5862, 1.5 mL) in all groups to induce gastric mucosal injury. Compound F was orally administered at doses of 0.01, 0.1 and 1 mg/kg 30 min before induction of gastric mucosal injury at a volume of 5 mL/kg. To the control group was orally administered a solvent (1 vol% ethanol solution) at 5 mL/kg in the same manner. Eight animals were used for each group.
The rats were bled to death from the abdominal aorta and caudal vena cava under ether anesthesia after 1 hr from the ethanol administration, and the stomach was isolated. The isolated stomach was immediately filled with 2 vol% neutral formalin solution (6 mL) and fixed for 15 min. The stomach was incised along the midline of the greater curvature from the cardiac part to the pyloric part, and extended on a vinyl chloride board. The length and width of each ulcer were measured under a stereomicroscope, the area was calculated, and the sum thereof was taken as the total ulcer area.

[4] = test system: concanavalin A-induced hepatitis; assay: Prophylactic effect on concanavalin A-induced hepatitis model in mice; assay type: in vivo, BALB/c mice; settings: oral 1 hr before Con A, compound F 1 mg/10 mL/kg, prednisolone 5 mg/10 mL/kg, 20 hr after Con A
Protocol: BALB/c mice (female, 7 weeks old, Japan SLC) were purchased, acclimated for 1 week and used for the study. Except the no-induction group, Con A (type IV, Sigma-Aldrich) dissolved in saline was administered from the tail vein of the mice at a dose of 12.5 mg/10 mL/kg to induce hepatitis. Twenty hr later, the mice were subjected to laparotomy under ether anesthesia. A 0.5 mL of blood sample was collected from the caudal vena cava and heparinized plasma was obtained to measure plasma ALT and AST activities. Test substances were compound F (1 mg/10 mL solution), prednisolone (Nacalai Tesque, 5 mg/10 mL suspension (with 0.5 w/v% methylcellulose)) and water for injection (administered to the control group), which were orally administered at a volume of 10 mL/kg 1 hr before Con A injection. Seven to 9 animals were used for each group. After logarithmic transformation of the data, one-way analysis of variance was performed for statistical evaluation.

IL-2 = assay: Suppressive effect on cytokine production, CD4 positive T cells stimulated with anti-CD3 and anti-CD28 antibody, ELISA; assay type: cell-based; settings: human CD4 positive T cells, anti-CD3/anti-CD28, 24 hr; geometric mean of three volunteers
Protocol: (§1) Blood was collected from 3 healthy volunteers, and CD4 positive T cells were prepared. […] In both cases, the test compound was added 30 min before stimulation.

TNF-α = assay: as above; assay type: cell-based; settings: human CD4 positive T cells, anti-CD3/anti-CD28, 24 hr; geometric mean of three volunteers
Protocol: as §1

T1 sequence (P35408 whole entry): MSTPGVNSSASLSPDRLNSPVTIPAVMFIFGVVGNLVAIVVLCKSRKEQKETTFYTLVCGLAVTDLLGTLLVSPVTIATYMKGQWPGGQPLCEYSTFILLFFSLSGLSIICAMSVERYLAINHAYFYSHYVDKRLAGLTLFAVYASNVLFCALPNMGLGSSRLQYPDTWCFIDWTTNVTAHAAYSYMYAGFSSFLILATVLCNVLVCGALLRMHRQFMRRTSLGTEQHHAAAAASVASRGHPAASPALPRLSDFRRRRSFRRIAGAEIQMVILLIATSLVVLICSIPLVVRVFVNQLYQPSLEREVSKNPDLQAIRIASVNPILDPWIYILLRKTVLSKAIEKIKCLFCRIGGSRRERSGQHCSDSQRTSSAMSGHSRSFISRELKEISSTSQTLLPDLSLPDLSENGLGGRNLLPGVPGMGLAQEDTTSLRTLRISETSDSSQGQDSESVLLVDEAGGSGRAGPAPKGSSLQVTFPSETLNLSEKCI

IC50 [1]: 917 nM
Residual ratio [2]: 91.6±6.8%
EC50 (Human EP4): 3.33 nM
Ki (Human EP1): 610 nM
IC50 (IL-2): 0.509 nM
IC50 (TNF-α): 1.25 nM
SMILES: Cc1cccc([C@@H](C)[C@H](O)/C=C/[C@@H]2[C@@H]3[C@H](C[C@H]2O)O/C(=C\CCCc2nnn[nH]2)C3(F)F)c1 [Compound F, 4-[(Z)-(1S,5R,6R,7R)-6-[(1E,3R,4R)-3-hydroxy-4-(m-tolyl)-1-pentenyl]-7-hydroxy-2-oxa-4,4-difluoro-bicyclo[3.3.0]octan-3-ylidene]-1-(tetrazol-5-yl)butane]
effect on total ulcer area (stomach) ([3]; oral 1 mg/kg 30 min before ethanol): almost completely reduced the area
effect on total ulcer area (stomach) ([3]; oral 0.01, 0.1 and 1 mg/kg 30 min before ethanol): significantly reduced the total ulcer area in a dose-dependent manner from 0.01 mg/kg
effect on increase of plasma ALT activity [4]: significantly and strongly suppressed the increase
effect on increase of plasma AST activity [4]: significantly and strongly suppressed the increase
